Columns and labels:
S. aureus (Smith) = assay: mouse protection test, CD50 (Table III); format: in vivo; conditions: for F.I.C. Index / CD50 (mg/kg) Combination: S. aureus (Smith) in mice, dipeptide:D-cycloserine 10:1; for CD50 (mg/kg) Combination: amount of peptide only listed, D-cycloserine is 10% of it; for CD50 (mg/kg) Peptide: mice infected i.p. with S. aureus (Smith), dosed subcutaneously, 7 days survival, peptide alone
Description: (§1) Charles River mice, weighing approximately 20 g. each, are infected intraperitoneally with 10-100 times the LD of the infecting organism. At predetermined intervals post-infection, e.g., 1 and 5 hours, mice are dosed subcutaneously with graded doses of the halogenated peptide, antibiotic and combination thereof. The number of mice surviving each treatment for 7 days post-infection is observed and the CD50 is calculated. The fractional inhibitory concentration (F.I.C.) for each combination is calculated in the usual manner.
(§2) In this table, the following infecting microorganisms were used:
(§3) The infecting organisms are listed by the above code; the compounds are listed by their Example number. In all instances, the dipeptide and D-cycloserine were tested at a ratio of 10:1. The CD50 combination column lists only the amount of peptide present; the D-cycloserine amount is 10% of the listed amount.

E. coli (Juhl) [1] = assay: serial dilution in synthetic medium in test tubes, MIC and F.I.C. index (Table II); format: cell-based; conditions: for MIC: Escherichia coli
Description: The halogenated peptides alone, the antibiotic alone or mixtures of the halogenated peptides and selected antibiotics are prepared in sterile concentrated aqueous solutions at the desired ratios. Serial dilutions are made to give a range of concentrations of the test substances. Samples of the dilutions are mixed with an appropriate sterile synthetic medium in test tubes. The tubes are then inoculated with an appropriate test organism and incubated at 35°-37° C. for 16-20 hours. Minimum inhibitory concentrations, i.e., that concentration which inhibits visible growth, are read and the fractional inhibitory concentration indices (F.I.C.) are calculated. In all instances, E. coli (Juhl) was used as the infecting microorganism.

E. coli (Juhl) [2] = assay: mouse protection test, CD50 (Table III); format: in vivo
Description: as §1, §2, §3

E. coli (Juhl) [3] = assay: two-fold agar dilution assay, M.I.C.; format: cell-based
From the text: (§4) In a two-fold agar dilution assay with E. coli (Juhl) and E. coli 6880 as test organisms, compounds of Examples 1 and 2 show a minimum inhibitory concentration (M.I.C.) of >800 ppm. […] The combination of the new peptide with D-cycloserine produces the following M.I.C. test results.

E. coli 6880 = assay: two-fold agar dilution assay, M.I.C.; format: cell-based
From the text: as §4

[4] = combination with D-cycloserine, ratio Pep/Antib. 1:8
[5] = combination with D-cycloserine, ratio Pep/Antib. 1:1
[6] = combination with cephalothin, ratio Pep/Antib. 1:1
[7] = Escherichia coli, substance alone, agar dilution, read-out: minimum inhibitory concentration (M.I.C.)
[8] = peptide:D-cycloserine ratio 1:1
[9] = peptide:D-cycloserine ratio 1:8
[10] = peptide:D-cycloserine ratio 8:1

COC(=O)[C@@H](CF)NC(=O)[C@H](C)N.Cl [Example 15, L-Ala-βF-D-Ala-OMe.HCl]
F.I.C. Index (S. aureus (Smith)): 0.32
CD50 (mg/kg) Combination (S. aureus (Smith)): 5.5 mg/kg
CD50 (mg/kg) Peptide (S. aureus (Smith)): 18 mg/kg

CCCCCCC(N)C(=O)N[C@H](CF)C(=O)O (stereo partly drawn) [Example 20, D,L-α-amino-octanoyl-βF-D-Ala]
F.I.C. Index (S. aureus (Smith)): 0.10
CD50 (mg/kg) Combination (S. aureus (Smith)): 8.6 mg/kg
CD50 (mg/kg) Peptide (S. aureus (Smith)): 75.9 mg/kg

NCC(=O)N[C@H](CF)C(=O)O [Example 10, Gly-βF-D-Ala]
F.I.C. Index (S. aureus (Smith)): 0.27
CD50 (mg/kg) Combination (S. aureus (Smith)): 4.7 mg/kg
CD50 (mg/kg) Peptide (S. aureus (Smith)): 19 mg/kg

N[C@@H](CCC(=O)O)C(=O)N[C@H](CF)C(=O)O [Example 9, L-Glu-βF-D-Ala]
F.I.C. Index (E. coli (Juhl) [1]; [4]): 0.50
MIC ppm Pep/Antib., antibiotic part (E. coli (Juhl) [1]; [4]): 3.1 ppm
MIC ppm Pep/Antib., peptide part (E. coli (Juhl) [1]; [4]): 0.39 ppm
MIC ppm Peptide (E. coli (Juhl) [1]; peptide alone, E. coli (Juhl), 35-37° C., 16-20 hours): > 800 ppm
F.I.C. Index (S. aureus (Smith)): 0.30
CD50 (mg/kg) Combination (S. aureus (Smith)): 7.6 mg/kg
CD50 (mg/kg) Peptide (S. aureus (Smith)): 28.5 mg/kg
F.I.C. Index (E. coli (Juhl) [2]; E. coli (Juhl) in mice, dipeptide:D-cycloserine 10:1): 0.96
CD50 (mg/kg) Combination (E. coli (Juhl) [2]; E. coli (Juhl) in mice, dipeptide:D-cycloserine 10:1, amount of peptide only listed, D-cycloserine is 10% of it): 72 mg/kg
CD50 (mg/kg) Peptide (E. coli (Juhl) [2]; mice infected i.p. with E. coli (Juhl), dosed subcutaneously, 7 days survival, peptide alone): 81 mg/kg

CC(=O)OCC1=C(C(=O)O)N2C(=O)[C@@H](NC(=O)Cc3cccs3)[C@H]2SC1 [cephalothin, reference compound]
MIC ppm Antibiotic (E. coli (Juhl) [1]; antibiotic alone, E. coli (Juhl), 35-37° C., 16-20 hours): 6.2 ppm

NCC(=O)N[C@H](CCl)C(=O)O [Example 12, Gly-βCl-D-Ala]
F.I.C. Index (S. aureus (Smith)): 0.30
CD50 (mg/kg) Combination (S. aureus (Smith)): 17.4 mg/kg
CD50 (mg/kg) Peptide (S. aureus (Smith)): 155 mg/kg

CCC(N)C(=O)N[C@H](CF)C(=O)O (stereo partly drawn) [Example 17, L-αNH2 -But-βF-D-Ala]
F.I.C. Index (S. aureus (Smith)): 0.20
CD50 (mg/kg) Combination (S. aureus (Smith)): 2.6 mg/kg
CD50 (mg/kg) Peptide (S. aureus (Smith)): 13.7 mg/kg

C[C@H](N)C(=O)N[C@H](CCl)C(=O)O [Example 2, L-alanyl-β-chloro-D-alanine]
MIC (E. coli (Juhl) [1]; combination with D-cycloserine, ratio Pep/Antib. 1:1, read-out: MIC ppm Pep/Antib., peptide part): 0.78 µg/mL
MIC (E. coli (Juhl) [1]; combination with D-cycloserine, ratio Pep/Antib. 1:8, read-out: MIC ppm Pep/Antib., peptide part): 0.2 µg/mL
MIC (E. coli (Juhl) [1]; combination with cephalothin, ratio Pep/Antib. 1:1, read-out: MIC ppm Pep/Antib., peptide part): 3.1 µg/mL
MIC (E. coli (Juhl) [1]; peptide alone, E. coli (Juhl), 35-37° C., 16-20 hours, read-out: MIC ppm Peptide): > 800 µg/mL
F.I.C. Index (E. coli (Juhl) [1]; [5]): 0.06
MIC ppm Pep/Antib., antibiotic part (E. coli (Juhl) [1]; [5]): 0.78 ppm
F.I.C. Index (E. coli (Juhl) [1]; [4]): 0.12
MIC ppm Pep/Antib., antibiotic part (E. coli (Juhl) [1]; [4]): 1.56 ppm
F.I.C. Index (E. coli (Juhl) [1]; [6]): 0.50
MIC ppm Pep/Antib., antibiotic part (E. coli (Juhl) [1]; [6]): 3.1 ppm
F.I.C. Index (S. aureus (Smith)): 0.34
CD50 (mg/kg) Combination (S. aureus (Smith)): 35 mg/kg
CD50 (mg/kg) Peptide (S. aureus (Smith)): 170 mg/kg
MIC (E. coli (Juhl) [3]; [7]): > 800 µg/mL
M.I.C. of combination, D-cycloserine part (E. coli (Juhl) [3]; [8]): 0.78 ppm
M.I.C. of combination, peptide part (E. coli (Juhl) [3]; [8]): 0.78 ppm
M.I.C. of combination, D-cycloserine part (E. coli (Juhl) [3]; [9]): 1.56 ppm
M.I.C. of combination, peptide part (E. coli (Juhl) [3]; [9]): 0.2 ppm
M.I.C. of combination, D-cycloserine part (E. coli (Juhl) [3]; [10]): 0.78 ppm
M.I.C. of combination, peptide part (E. coli (Juhl) [3]; [10]): 0.62 ppm
MIC (E. coli 6880; [7]): > 800 µg/mL
M.I.C. of combination, D-cycloserine part (E. coli 6880; [8]): 0.78 ppm
M.I.C. of combination, peptide part (E. coli 6880; [8]): 0.78 ppm
M.I.C. of combination, D-cycloserine part (E. coli 6880; [9]): 0.78 ppm
M.I.C. of combination, peptide part (E. coli 6880; [9]): 0.1 ppm
M.I.C. of combination, D-cycloserine part (E. coli 6880; [10]): 0.39 ppm
M.I.C. of combination, peptide part (E. coli 6880; [10]): 3.1 ppm

N[C@@H](Cc1ccccc1)C(=O)N[C@H](CF)C(=O)O [Example 5, L-Phe-βF-D-Ala]
F.I.C. Index (S. aureus (Smith)): 0.99
CD50 (mg/kg) Combination (S. aureus (Smith)): 13.6 mg/kg
CD50 (mg/kg) Peptide (S. aureus (Smith)): 14.4 mg/kg

— patent US4264590A, “Antibacterial peptide” (Abbott Laboratories, priority 1980, dated 1981)
